Each structure is given as a SMILES string. Read-outs that look alike come from different tables or passages of the source.

The text below walks through data of publication PMC3196794 (Chemical research in toxicology, 2011).

Data set [1] has as its target T1, hSULT2A1 (Homo sapiens, UniProt Q06520).
T1 sequence (Q06520 1-285): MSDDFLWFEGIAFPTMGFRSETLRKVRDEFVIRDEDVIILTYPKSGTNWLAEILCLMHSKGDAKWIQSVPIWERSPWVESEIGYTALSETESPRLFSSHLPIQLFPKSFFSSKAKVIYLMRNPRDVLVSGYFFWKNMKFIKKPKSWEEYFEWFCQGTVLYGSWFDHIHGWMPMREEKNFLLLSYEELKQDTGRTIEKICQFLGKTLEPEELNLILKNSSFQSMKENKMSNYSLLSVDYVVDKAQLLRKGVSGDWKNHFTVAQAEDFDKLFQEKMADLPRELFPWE
The experiment in a line: Inhibition of the sulfation of DHEA catalyzed by hSULT2A1. Format: biochemical.

The target of data set [2] is T1, hSULT2A1. The experiment in a line: CoMFA 3D-QSAR model for inhibition of hSULT2A1 by OHPCBs. The settings on record: for Difference between the experimental and the predicted values for pIC50: CoMFA Model 1.
In data set [3] the target is T1, hSULT2A1. The experiment in a line: OHPCBs as substrates for hSULT2A1. The settings on record: 200 μM PAPS; fit to substrate inhibition equation. Format: biochemical.
Data set [4] addresses T1, hSULT2A1. The following applies: 200 μM PAPS; cited from earlier work.
For data set [5] the following is noted: pH 7.
Where [6] appears, read: Actual pIC50, -log IC50 (M), Table 3.
The mark [7] stands for this setting: IC50 (inhibition of the sulfation of DHEA catalyzed by hSULT2A1), 1 μM [3H]DHEA, 200 μM PAPS, pH 7.0, 37°C, 10 min, mean ± standard error of the fit.

Consider `Oc1ccc(-c2cccc(Cl)c2Cl)cc1O` [3′,4′-diOHPCB 5, 3′, 4′-dihydroxy-2,3-dichlorobiphenyl], for which the values for the IC50 in data set [1] (setting [6]) and in data set [1] (setting [7]) were 1.59e-05 M and 1.6e-05 ± 1.1e-06 M, respectively. Besides, the “Difference between the experimental and the predicted values for pIC50” value in data set [2] is given as 0.054.
Regarding `Oc1ccc(-c2ccc(Cl)cc2)cc1O` [3′,4′-diOHPCB 3, 3′, 4′-dihydroxy-4-monochlorobiphenyl], the IC50 was determined as 9.57e-05 M in data set [1] (IC50 (experimental, Table 3), experimental values used for CoMFA Model 1) and 9.6e-05 ± 1.2e-06 M in data set [1] (setting [7]). Also, in data set [2], the “Difference between the experimental and the predicted values for pIC50” value is 0.072.
As to `Oc1ccc(-c2ccc(Cl)c(Cl)c2)c(Cl)c1` [4′-OHPCB 33, 4′-hydroxy-2′, 3,4-trichlorobiphenyl], the IC50 in data set [1] (setting [6]) was 2.5e-06 M; in data set [1] (setting [7]), 2.5e-06 ± 1.1e-06 M. Also, in data set [3], the “Kis (substrate inhibition constant)” value is 217 ± 189 µM. For the same compound, the “Difference between the experimental and the predicted values for pIC50” value in data set [2] is on record as 0.099.
`Oc1ccc(-c2ccc(Cl)cc2)cc1` [4′-OHPCB 3, 4′-hydroxy-4-monochlorobiphenyl]: the IC50 in data set [1] (setting [6]) is 2.81e-05 M; in data set [1] (setting [7]), 2.8e-05 ± 1.1e-06 M. Also, the “Difference between the experimental and the predicted values for pIC50” value in data set [2] is given as 0.026.
Take `Oc1ccc(-c2ccc(Cl)c(Cl)c2)cc1` [4′-OHPCB 12, 4′-hydroxy-3,4-dichlorobiphenyl]: the IC50 in data set [1] (Actual IC50, Table 4) is 1.58e-05 M; in data set [1] (setting [6]), 1.58e-05 M; in data set [1] (setting [7]) it was 1.6e-05 ± 1.1e-06 M. In addition, the “Difference between the experimental and the predicted values for pIC50” value in data set [2] was 0.039.
With `Oc1ccc(Cl)cc1-c1ccc(Cl)c(Cl)c1` [6′-OHPCB 35, 6′-hydroxy-3, 3′-4 trichlorobiphenyl], the “Actual pIC50” value in data set [1] (-log IC50 (M), Table 3) came to 4.810. In addition, the IC50 in data set [1] (read-out: IC50 (inhibition of the sulfation of DHEA catalyzed by hSULT2A1), 1 μM [3H]DHEA, 200 μM PAPS, pH 7.0, 37°C, 10 min, mean ± standard error of the fit) was found to be 1.6e-05 ± 1.1e-06 M. The “Difference between the experimental and the predicted values for pIC50” value in data set [2] is listed as 0.088.
For `Oc1c(Cl)cc(-c2ccccc2)cc1Cl` [4-OHPCB 14, 4-hydroxy-3,5-dichlorobiphenyl], the IC50 in data set [1] (Actual IC50, Table 4) was 1.3e-05 M; in data set [1] (setting [6]), 1.3e-05 M; in data set [1] (setting [7]), 1.3e-05 ± 1.1e-06 M. Moreover, the “Kis (substrate inhibition constant)” value in data set [3] turned out to be 220 ± 56 µM. In addition, in data set [2], the “Difference between the experimental and the predicted values for pIC50” value was 0.196. The “fold difference between the predicted and the actual IC50 values” in data set [2] (CoMFA Model 2) is given as 3.8 fold.
On to `Oc1c(Cl)cc(-c2ccccc2Cl)cc1Cl` [4-OHPCB 34, 4-hydroxy-2′, 3,5-trichlorobiphenyl], for which half-maximal inhibition in data set [1] (setting [6]) (IC50) was put at 6e-07 M. Besides, the “fold decrease in IC50 compared with 4-OHPCB 36” value in data set [1] (chlorine in the non-phenolic ring changed from meta to ortho) was “approximately 7 fold”. Besides, the “Kis (substrate inhibition constant)” value in data set [3] is 47.4 ± 16.2 µM. In addition, the “Difference between the experimental and the predicted values for pIC50” value in data set [2] is on record as 0.199.
`Oc1c(Cl)cc(-c2cccc(Cl)c2)cc1Cl` [4-OHPCB 36, 4-hydroxy-3, 3′, 5-trichlorobiphenyl]: the IC50 is 4.4e-06 M in data set [1] (setting [6]) and 4.4e-06 ± 1.2e-06 M in data set [1] (setting [7]). Further, the “Kis (substrate inhibition constant)” value in data set [3] worked out at 39.4 ± 23.1 µM. Moreover, in data set [2], the “Difference between the experimental and the predicted values for pIC50” value is 0.088.
In the case of `Oc1c(Cl)cc(-c2ccc(Cl)cc2Cl)cc1Cl` [4′-OHPCB 68, 4′-hydroxy-2, 3′, 4, 5′-tetrachlorobiphenyl], the IC50 in data set [1] (setting [6]) was 8e-07 M. In addition, the “Difference between the experimental and the predicted values for pIC50” value in data set [2] is recorded as 0.056.
`Oc1ccc(-c2cccc(Cl)c2)cc1Cl` [4-OHPCB 11, 4-hydroxy-3, 3′-dichlorobiphenyl]: the IC50 in data set [1] (setting [6]) was 1.4e-05 M; in data set [1] (setting [7]), 1.4e-05 ± 1.2e-06 M. Also, the “Kis (substrate inhibition constant)” value in data set [3] was 51.9 ± 65.7 µM. For the same compound, the “Difference between the experimental and the predicted values for pIC50” value in data set [2] is 0.011.
In the same order, the values of `Oc1ccc(-c2ccc(Cl)cc2)c(Cl)c1` [4-OHPCB 8, 4-hydroxy-2, 4′-dichlorobiphenyl] are 1e-05 M, 1e-05 ± 1.2e-06 M, 65.4 ± 73.8 µM and 0.303.
In the case of `C[C@]12CC[C@H](O)CC1=CC[C@@H]1[C@@H]2CC[C@]2(C)C(=O)CC[C@@H]12` [DHEA, dehydroepiandrosterone], in data set [4], the “Kis with DHEA as substrate” value was 8 ± 3 µM and the “Vmax with DHEA as substrate” value was 245 ± 40 nmol/min/mg.
`Oc1ccc(-c2cc(Cl)ccc2Cl)cc1` [4′-OHPCB 9, 4′-hydroxy-2,5-dichlorobiphenyl]: the figures for the IC50 in data set [1] (setting [6]) and in data set [1] (setting [7]) were 7.5e-06 M and 7.5e-06 ± 1.1e-06 M, respectively. Moreover, in data set [2], the “Difference between the experimental and the predicted values for pIC50” value is 0.011.
In the same order, the values of `Oc1ccc(-c2ccccc2Cl)cc1Cl` [4′-OHPCB 6, 4′-hydroxy-2, 3′-dichlorobiphenyl] are 9.79e-06 M, 9.8e-06 ± 1.1e-06 M and 0.108.
As for `Oc1ccc(-c2ccc(Cl)cc2Cl)cc1Cl` [4′-OHPCB 25, 4′-hydroxy-2, 3′, 4-trichlorobiphenyl], the IC50 in data set [1] (Actual IC50, Table 4) is 4.4e-06 M; in data set [1] (setting [6]) it was 4.4e-06 M; in data set [1] (setting [7]) it was 4.4e-06 ± 1.3e-06 M. Also, in data set [5], the solubility result is “low solubility”. The “Difference between the experimental and the predicted values for pIC50” value in data set [2] is 0.084.
